Source: patent US20250127774A1, “COMPOUNDS FOR LABELLING NUCLEIC ACID AND USES THEREOF” (THE ROYAL INSTITUTION FOR THE ADVANCEMENT OF …, priority 2022, published 2025)

Assays:
[1] = tested on: C57BL/6J mice; assay: 5-VdU incorporation in rapidly proliferating cells in vivo; conditions: 500 mg/kg 5-VdU i.p. on two subsequent days
Protocol: 5-VdU incorporation in rapidly proliferating cells in vivo. C57BL/6J mice were either injected with 200 μl 10% DMSO in 1× sterile PBS as a vehicle or 500 mg/kg 5-VdU i.p. on two subsequent days and then sacrificed. Experimental group size was n=6. (A) Bone marrow was explanted, fixed, permeabilized and stained with PINK for 4 h at RT. Nuclei were counterstained with Hoechst33342. A strong nuclear signal can be observed in the PINK treated sample when compared to the controls. (B) Small intestine and (C) spleen tissue was subjected to paraffin embedding and the slides where then stained with PINK for 4 h at RT. Nuclei were counterstained with Hoechst33342. Specific nuclear signals are visible in the PINK treated sample when compared to the controls. […] These cells can be stained with PINK in FFPE sections=in vivo DNA replication/proliferation reporter.

[2] = tested on: HeLa and U2OS cells; assay: Resazurin assay, toxicity evaluation of PINK; format: cell-based; conditions: low micromolar concentrations of PINK (0-12.5 μM), 24 and 72 h
Protocol: Cellular respiratory activity was evaluated by measuring the fluorescence emission after addition of resazurin ([…]).
Resazurin Assay. HeLa or U2OS cells were seeded in 96-well plates at a density of 7,500 cells per well and incubated overnight. The supernatant was removed and 100 μL fresh media containing PINK (0-12.5 μM; 0.1% DMSO) was added. Cells were grown for 24 or 72 h, at which point 10 μL resazurin (880 μM in PBS; final concentration: 80 μM) was added. After incubation for 3 h, the fluorescence emission at 590 nm (excitation 560 nm; cut-off: 575 nm) was measured using a SpectraMax M5 plate reader (Molecular Devices, Sunnyvale, CA, USA). LC50 values were determined from two independent replicates.

[3] = Photophysical measurements (quantum yield) of PINK and PINK-VdU-ox; format: physicochemical; conditions: excitation 488 nm, Rhodamine 6G standard; PINK in aqueous and aprotic solvents, 6 depending on the solvent used
Protocol: PINK (4) undergoes a highly fluorogenic and regioselective IEDDA reaction with VdU (5) to give “PINK-VdU-ox” (6) as a single isomer in a 76% isolated yield after 7d at 60° C. (Scheme 1). The slow rate of this non-templated reaction (Kapp=0.01 M^−1 s^−1, FIG. 5) is due to the combination of an unstrained terminal alkene and unactivated tetrazine.^[49] Over the course of the reaction, a ˜100-fold increase in fluorescence was observed (FIG. 3, c). With a quantum yield (φF)<0.2%, PINK (4) is essentially non-fluorescent in both aqueous and aprotic solvents (FIG. 6).
Highly viscous solvents, including glycerol and polyethylene glycol (PEG 200) induced higher fluorescence of 6, likely by restricting bond rotation and thus suppressing formation of a non-emissive, twisted intramolecular charge transfer (TICT) state.^[50]
Photophysical Measurements. Stock solutions (1-10 mM) of investigated compounds were prepared in DMSO and stored at −20° C. DMSO concentrations were less than 1% after dilution into the respective solvent/aqueous buffer. Measurements were collected on a SpectraMax M5 plate reader (Molecular Devices, Sunnyvale, CA, USA) in 1 cm path-length quartz cuvettes. Quantum yields were obtained by excitation at 488 nm using Rhodamine 6G ((=0.94) in EtOH (n=1.3624) as a fluorescent standard.^[1] Quantum yields were calculated using the equation I: […]

[4] = PINK stability test; format: physicochemical; conditions: 20 μM PINK, 1 mM b.p. CT-DNA, PBS pH 7.4 (10% DMSO)
Protocol: B) Fluorescence changes (excitation: 500 nm, emission: 590 nm; 515 nm cutoff filter) of 20 μM PINK in the presence of 1 mM b.p. CT-DNA (50 eq) in PBS pH 7.4 (10% DMSO) followed by addition of 5-norbornene-2-methanol (2 mM, 100 eq).
PINK Stability Test. Fluorescence changes (excitation: 500 nm, emission: 590 nm; 515 nm cutoff filter) of 20 μM PINK were monitored in the presence of 1 mM base pairs of calf thymus (CT) DNA (50 eq) in PBS pH 7.4 (10% DMSO) followed by addition of 5-norbornene-2-methanol (2 mM, 100 eq). Measurements were conducted on a SpectraMax M5 plate reader (Molecular Devices, Sunnyvale, CA, USA) in 1 cm path-length quartz cuvettes.

[5] = Kinetic measurements with the VdU nucleoside (non-templated IEDDA reaction); conditions: 50 mM aq. NaOAc buffer pH 5.2 (27% DMSO)
Protocol: A) Fluorescence increase versus time upon mixing PINK with VdU. […] B) Normalized increase of fluorescence. C) Plot of the observed rates k′ versus PINK concentrations. The slope yields the rate constant k.
PINK (4) undergoes a highly fluorogenic and regioselective IEDDA reaction with VdU (5) to give “PINK-VdU-ox” (6) as a single isomer in a 76% isolated yield after 7d at 60° C. (Scheme 1). The slow rate of this non-templated reaction (Kapp=0.01 M^−1 s^−1, FIG. 5) is due to the combination of an unstrained terminal alkene and unactivated tetrazine.^[49] Over the course of the reaction, a ˜100-fold increase in fluorescence was observed (FIG. 3, c). […]
Kinetic Measurements with the VdU Nucleoside. Second order reaction rates between PINK and VdU were determined under pseudo first order conditions with a large excess of the dienophile over the tetrazine. […] Measurements were performed on a SpectraMax M5 plate reader (Molecular Devices, Sunnyvale, CA, USA) in 384 well plates (Greiner bio-one, cat-#871906; 50 μL per well; covered with 20 μL spectroscopic grade silicon oil to avoid evaporation). […] Samples were measured over 18 h in intervals of 10 min. […] Reactions rates were calculated using pseudo first order approximations fitting the measurements to mono exponential equations. The reported reaction rate is an arithmetic mean determined from three independent experiments.

Row | Compound | incorporation into rapidly dividing cells (bone marrow, small intestine, spleen; PINK staining) [1] | toxicity to mice [1] | toxicity to cells (cellular respiratory activity, resazurin) [2] | quantum yield (φF) [3] [%] | degradation of PINK on extended incubation with unmodified DNA [4] | rate of non-templated reaction (Kapp) ([5]; 100 μM PINK, 1-5 mM VdU) [M⁻¹ s⁻¹] | stability of PINK under control conditions (0 mM VdU) ([5]; 18 h)
1 | C=Cc1cn([C@H]2C[C@H](O)[C@@H](CO)O2)c(=O)[nH]c1=O [VdU, 5-vinyl-2′-deoxyuridine] | incorporates into rapidly dividing cells in vivo | non-toxic to mice at high concentrations | – | – | – | – | –
2 | Cc1nnc(-c2ccc3cc4ccc(N(C)C)cc4nc3c2)nn1 [PINK] | – | – | not toxic to cells even at longer incubation times | < 0.2 | little-to-no degradation | 0.01 | full stability
